Results on three compounds are retold here after ChEMBL document CHEMBL1208738, “Optimization of privileged structures for selective and potent melanocortin subtype-4 receptor ligands” (Bioorg Med Chem Lett, 2010).

Bounds are passed on as bounds.

T3 sequence (P41968 whole entry): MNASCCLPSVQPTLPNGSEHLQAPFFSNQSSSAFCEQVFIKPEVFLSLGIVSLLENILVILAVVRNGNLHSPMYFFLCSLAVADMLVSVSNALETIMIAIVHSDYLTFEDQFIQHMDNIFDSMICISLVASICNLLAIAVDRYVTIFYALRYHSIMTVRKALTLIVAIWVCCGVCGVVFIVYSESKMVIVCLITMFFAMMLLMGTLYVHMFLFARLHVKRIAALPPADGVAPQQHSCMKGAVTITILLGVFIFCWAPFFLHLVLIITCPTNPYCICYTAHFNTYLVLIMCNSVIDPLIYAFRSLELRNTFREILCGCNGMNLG

The target of the first data set is T1, Melanocyte-stimulating hormone receptor (Homo sapiens, UniProt Q01726). Kind of data set: Displacement of [125I]NDP-alpha-MSH from human MC1 receptor expressed in CHO cells.
T1 sequence (Q01726 whole entry): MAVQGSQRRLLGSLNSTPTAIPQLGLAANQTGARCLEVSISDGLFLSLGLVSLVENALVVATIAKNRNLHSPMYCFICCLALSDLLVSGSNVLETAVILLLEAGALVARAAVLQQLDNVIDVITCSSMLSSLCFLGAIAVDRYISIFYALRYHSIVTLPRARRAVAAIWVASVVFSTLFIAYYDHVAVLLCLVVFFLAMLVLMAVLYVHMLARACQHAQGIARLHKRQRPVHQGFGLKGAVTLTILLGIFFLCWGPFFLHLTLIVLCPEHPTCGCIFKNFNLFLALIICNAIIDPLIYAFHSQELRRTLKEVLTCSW
Details: not given
The format is cell-based. On the technique in general: Displacement assays read how much labelled ligand stays bound in the presence of the test substance.
As a reminder, the IC50 is the concentration that gives 50% inhibition. The compound `CC(C)N(CC(C1CCCCC1)N1CCN(C(=O)[C@@H]2CN(C(C)(C)C)C[C@H]2c2ccc(F)cc2F)CC1)S(C)(=O)=O` (single isomer, unassigned; diastereomer 2) had an IC50 of 1 µM. This counts as single-digit micromolar.
Same read-out and setting: with `CC(=O)N(CC(CC(C)C)N1CCN(C(=O)[C@@H]2CN(C(C)(C)C)C[C@H]2c2ccc(F)cc2F)CC1)C(C)C` (single isomer, unassigned; diastereomer 2) the figure was 3.6 µM.
Same read-out and setting: the same measure for `CC(C)N(CC(C1CCCCC1)N1CCN(C(=O)[C@@H]2CN(C(C)(C)C)C[C@H]2c2ccc(F)cc2F)CC1)C(=O)c1cnn(C(C)C)c1` (single isomer, unassigned; diastereomer 1): 0.73 µM.

Test system in another data set: not listed separately
Kind of data set: Clearance in Sprague-Dawley rat at 1 mg/kg, iv and 4 mg/kg, po. The format is ADME, organism-based. As to conditions: in vivo.
Regarding `CC(C)N(CC(C1CCCCC1)N1CCN(C(=O)[C@@H]2CN(C(C)(C)C)C[C@H]2c2ccc(F)cc2F)CC1)S(C)(=O)=O` (single isomer, unassigned; diastereomer 2), the clearance turned out to be 25 mL/min/kg.

Test system in a further data set: not listed separately
Kind of data set: Oral bioavailability in Sprague-Dawley rat at 4 mg/kg. The format is ADME, organism-based. The settings on record: in vivo.
As a reminder, the bioavailability is the share of a dose that reaches the circulation, judged against a reference dose that is usually intravenous. The compound `CC(C)N(CC(C1CCCCC1)N1CCN(C(=O)[C@@H]2CN(C(C)(C)C)C[C@H]2c2ccc(F)cc2F)CC1)S(C)(=O)=O` (single isomer, unassigned; diastereomer 2) came in with a bioavailability of 21%.

Test system in the next data set: not listed separately
Kind of data set: Half life in Sprague-Dawley rat at 1 mg/kg, iv and 4 mg/kg, po. The format is ADME, organism-based. As to conditions: in vivo.
Broadly, the half-life is how long it takes for the measured level to halve. A low value points to rapid decline. `CC(C)N(CC(C1CCCCC1)N1CCN(C(=O)[C@@H]2CN(C(C)(C)C)C[C@H]2c2ccc(F)cc2F)CC1)S(C)(=O)=O` (single isomer, unassigned; diastereomer 2): the half-life was 2.7 h.

In a further data set the target is T2, Melanocortin receptor 4 (Homo sapiens, UniProt P32245). Kind of data set: Agonist activity at human MC4 receptor expressed in CHO cells assessed as increase of alpha-MSH-induced cAMP accumulation. The format is functional, cell-based.
T2 sequence (P32245 whole entry): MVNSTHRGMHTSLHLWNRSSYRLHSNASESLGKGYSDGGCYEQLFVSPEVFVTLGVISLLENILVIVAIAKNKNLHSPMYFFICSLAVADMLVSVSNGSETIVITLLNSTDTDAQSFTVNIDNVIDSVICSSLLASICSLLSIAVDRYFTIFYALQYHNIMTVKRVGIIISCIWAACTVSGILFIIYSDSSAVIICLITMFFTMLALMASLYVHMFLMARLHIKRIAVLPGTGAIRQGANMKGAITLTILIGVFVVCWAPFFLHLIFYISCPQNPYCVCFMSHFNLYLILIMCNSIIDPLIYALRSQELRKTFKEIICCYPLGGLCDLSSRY
Details: not given
One may read the EC50 as the concentration at which the effect is half-maximal. `CC(C)N(CC(C1CCCCC1)N1CCN(C(=O)[C@@H]2CN(C(C)(C)C)C[C@H]2c2ccc(F)cc2F)CC1)S(C)(=O)=O` (single isomer, unassigned; diastereomer 2): the EC50 stood at 0.013 µM.
Still for that read-out and setting: the same measure for `CC(=O)N(CC(CC(C)C)N1CCN(C(=O)[C@@H]2CN(C(C)(C)C)C[C@H]2c2ccc(F)cc2F)CC1)C(C)C` (single isomer, unassigned; diastereomer 2): 0.0097 µM.
Still for that read-out and setting: with `CC(C)N(CC(C1CCCCC1)N1CCN(C(=O)[C@@H]2CN(C(C)(C)C)C[C@H]2c2ccc(F)cc2F)CC1)C(=O)c1cnn(C(C)C)c1` (single isomer, unassigned; diastereomer 1) the figure was 0.0064 µM.

The next data set has as its target T1, Melanocyte-stimulating hormone receptor. Kind of data set: Agonist activity at human MC1 receptor expressed in CHO cells assessed as increase of alpha-MSH-induced cAMP accumulation. The format is functional, cell-based.
Details: not given
As to `CC(C)N(CC(C1CCCCC1)N1CCN(C(=O)[C@@H]2CN(C(C)(C)C)C[C@H]2c2ccc(F)cc2F)CC1)S(C)(=O)=O` (single isomer, unassigned; diastereomer 2), the EC50 is 0.54 µM.
For the compound `CC(=O)N(CC(CC(C)C)N1CCN(C(=O)[C@@H]2CN(C(C)(C)C)C[C@H]2c2ccc(F)cc2F)CC1)C(C)C` (single isomer, unassigned; diastereomer 2), the EC50 came to 0.56 µM.
For the compound `CC(C)N(CC(C1CCCCC1)N1CCN(C(=O)[C@@H]2CN(C(C)(C)C)C[C@H]2c2ccc(F)cc2F)CC1)C(=O)c1cnn(C(C)C)c1` (single isomer, unassigned; diastereomer 1), the EC50 is 0.52 µM.

A further data set concerns the target T3, Melanocortin receptor 3 (Homo sapiens, UniProt P41968). Kind of data set: Agonist activity at human MC3 receptor expressed in CHO cells assessed as increase of alpha-MSH-induced cAMP accumulation. The format is functional, cell-based.
Details: not given
For orientation: Changes in cAMP serve as a functional read-out for many G protein-coupled receptors.
Consider `CC(C)N(CC(C1CCCCC1)N1CCN(C(=O)[C@@H]2CN(C(C)(C)C)C[C@H]2c2ccc(F)cc2F)CC1)S(C)(=O)=O` (single isomer, unassigned; diastereomer 2), for which the EC50 was found to be 1.8 µM.
Same read-out and setting: with `CC(=O)N(CC(CC(C)C)N1CCN(C(=O)[C@@H]2CN(C(C)(C)C)C[C@H]2c2ccc(F)cc2F)CC1)C(C)C` (single isomer, unassigned; diastereomer 2) the figure was 0.88 µM.
On the same count and under the same terms, with `CC(C)N(CC(C1CCCCC1)N1CCN(C(=O)[C@@H]2CN(C(C)(C)C)C[C@H]2c2ccc(F)cc2F)CC1)C(=O)c1cnn(C(C)C)c1` (single isomer, unassigned; diastereomer 1) the figure was 0.079 µM.

A further data set concerns the target T2, Melanocortin receptor 4. Kind of data set: Displacement of [125I]NDP-alpha-MSH from human MC4 receptor expressed in CHO cells. The format is cell-based.
Details: not given
Compound `CC(C)N(CC(C1CCCCC1)N1CCN(C(=O)[C@@H]2CN(C(C)(C)C)C[C@H]2c2ccc(F)cc2F)CC1)S(C)(=O)=O` (single isomer, unassigned; diastereomer 2) gave an IC50 of 0.013 µM.
The same measure, in the same setting: the same measure for `CC(=O)N(CC(CC(C)C)N1CCN(C(=O)[C@@H]2CN(C(C)(C)C)C[C@H]2c2ccc(F)cc2F)CC1)C(C)C` (single isomer, unassigned; diastereomer 2): 0.023 µM.
Same read-out and setting: with `CC(C)N(CC(C1CCCCC1)N1CCN(C(=O)[C@@H]2CN(C(C)(C)C)C[C@H]2c2ccc(F)cc2F)CC1)C(=O)c1cnn(C(C)C)c1` (single isomer, unassigned; diastereomer 1) the figure was 0.018 µM.

The target of another data set is T4, Melanocortin receptor 5 (Homo sapiens, UniProt P33032). Kind of data set: Agonist activity at human MC5 receptor expressed in CHO cells assessed as increase of alpha-MSH-induced cAMP accumulation.
T4 sequence (P33032 whole entry): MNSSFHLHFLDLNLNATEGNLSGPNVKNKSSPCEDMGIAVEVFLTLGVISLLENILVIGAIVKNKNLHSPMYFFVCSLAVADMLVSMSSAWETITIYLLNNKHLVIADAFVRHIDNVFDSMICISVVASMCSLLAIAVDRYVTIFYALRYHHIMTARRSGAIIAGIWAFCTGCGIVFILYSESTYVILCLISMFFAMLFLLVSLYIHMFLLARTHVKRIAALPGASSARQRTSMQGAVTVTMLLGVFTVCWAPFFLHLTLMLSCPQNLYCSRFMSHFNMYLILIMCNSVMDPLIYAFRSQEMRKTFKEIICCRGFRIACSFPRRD
Details: not given
The format is functional, cell-based.
For the compound `CC(C)N(CC(C1CCCCC1)N1CCN(C(=O)[C@@H]2CN(C(C)(C)C)C[C@H]2c2ccc(F)cc2F)CC1)S(C)(=O)=O` (single isomer, unassigned; diastereomer 2), the half-maximal effective concentration (EC50) is greater than 5 µM.
Still for that read-out and setting: with `CC(=O)N(CC(CC(C)C)N1CCN(C(=O)[C@@H]2CN(C(C)(C)C)C[C@H]2c2ccc(F)cc2F)CC1)C(C)C` (single isomer, unassigned; diastereomer 2) the figure was greater than 5 µM; with `CC(C)N(CC(C1CCCCC1)N1CCN(C(=O)[C@@H]2CN(C(C)(C)C)C[C@H]2c2ccc(F)cc2F)CC1)C(=O)c1cnn(C(C)C)c1` (single isomer, unassigned; diastereomer 1), 1 µM.

Test system in another data set: not listed separately
Kind of data set: Volume of distribution at steady state in Sprague-Dawley rat at 1 mg/kg, iv and 4 mg/kg, po. The format is ADME, organism-based. The settings on record: in vivo, read-out: Vdss.
`CC(C)N(CC(C1CCCCC1)N1CCN(C(=O)[C@@H]2CN(C(C)(C)C)C[C@H]2c2ccc(F)cc2F)CC1)S(C)(=O)=O` (single isomer, unassigned; diastereomer 2): the Vd was found to be 6 L/kg.

A further data set addresses T3, Melanocortin receptor 3. Kind of data set: Displacement of [125I]NDP-alpha-MSH from human MC3 receptor expressed in CHO cells. The format is cell-based.
Details: not given
Compound `CC(C)N(CC(C1CCCCC1)N1CCN(C(=O)[C@@H]2CN(C(C)(C)C)C[C@H]2c2ccc(F)cc2F)CC1)S(C)(=O)=O` (single isomer, unassigned; diastereomer 2) gave an IC50 of 3.6 µM.
The same measure, in the same setting: the same measure for `CC(=O)N(CC(CC(C)C)N1CCN(C(=O)[C@@H]2CN(C(C)(C)C)C[C@H]2c2ccc(F)cc2F)CC1)C(C)C` (single isomer, unassigned; diastereomer 2): 4.7 µM.
Compound `CC(C)N(CC(C1CCCCC1)N1CCN(C(=O)[C@@H]2CN(C(C)(C)C)C[C@H]2c2ccc(F)cc2F)CC1)C(=O)c1cnn(C(C)C)c1` (single isomer, unassigned; diastereomer 1) showed an IC50 of 0.87 µM.

The target of another data set is T4, Melanocortin receptor 5. Kind of data set: Displacement of [125I]NDP-alpha-MSH from human MC5 receptor expressed in CHO cells. The format is cell-based.
Details: not given
On to `CC(C)N(CC(C1CCCCC1)N1CCN(C(=O)[C@@H]2CN(C(C)(C)C)C[C@H]2c2ccc(F)cc2F)CC1)S(C)(=O)=O` (single isomer, unassigned; diastereomer 2), for which the IC50 was determined as 0.25 µM.
On the same count and under the same terms, with `CC(=O)N(CC(CC(C)C)N1CCN(C(=O)[C@@H]2CN(C(C)(C)C)C[C@H]2c2ccc(F)cc2F)CC1)C(C)C` (single isomer, unassigned; diastereomer 2) the figure was 1.1 µM.
Same read-out and setting: with `CC(C)N(CC(C1CCCCC1)N1CCN(C(=O)[C@@H]2CN(C(C)(C)C)C[C@H]2c2ccc(F)cc2F)CC1)C(=O)c1cnn(C(C)C)c1` (single isomer, unassigned; diastereomer 1) the figure was 0.62 µM.
